# According to patent publication US5441887A, “Rapid degradation of halogenated hydrocarbons by soluble methane monooxygenase” (Regents of the University of Minnesota, priority 1994, dated 1995):
# What was measured:
# [1] = system: Methylosinus trichosporium OB3b; test: No-headspace (single phase) assay of TCE degradation by continuously cultured Mt OB3b; format: cell-based; settings: for Rates: 0% methane, 10 min-15 min; for micromoles TCE removed · hr^-1 · g dry cells^-1: cells cultured with methane 45 ml/min, air 135 ml/min; for Micromoles TCE removed: culture 0.64 g cells/l
# Protocol: Each culture of Mt OB3b was added to 1.8 ml serum bottle prewarmed to 30° C. and sealed with an 11 mm teflon-lined rubber septa. For comparisons requiring similar initial dissolved oxygen levels, anaerobic make-up media (usually 0.6 ml) was added to the bottles first and then the bottles were sealed. Air-saturated 30° C. Higgins media prepared as in Example I was added via gas-tight syringe (1.0 ml), while 1 atm pressure was maintained by allowing air to bleed through a 25 gauge needle. Finally, culture was added (concentrated to give desired density) while remaining headspace-was bled out through the 25 gauge needle. TCE was added with a syringe at the bottom of the sealed bottle, with a syringe at top of the bottle removing equivalent volume of culture. The assay time course was started with TCE (substrate) addition. Incubation was performed at 30° C. with agitation at 200 rpm on a platform shaker.
# Assays were terminated by extraction at desired time points. The liquid-liquid extraction technique used 0.6 ml of pentane containing 1,2-dibromoethane as an internal standard added via gas-tight syringe to inverted assay bottle, while a second syringe with a needle below first needle level collected displaced solution. Partitioning was brought to equilibrium by centrifugation of bottles at 5000 rpm for 10 min. The organic layer was removed by gas-tight syringe and placed in a 1 ml serum bottle for chromatographic analysis. In some cases, dilution of sample or split injection was necessary. Electron-capture detection was preferred. The following gas chromatography operating parameters were used:
# The following Tests 1, 2 and 3 were conducted according to the no-headspaceassay procedure described generally above. […]
# In prewarmed (30° C.) 120 ml serum bottles, 1 ml of Mt OB3b cell suspension grown in a chemostat (A600 =1.460) were mixed with 9 mls of 30° C. Higgins media prepared as in Example I. One bottle was prepared by adding "spent" media from the chemostat (decant media after pelleting cells with centrifugation--10,000 rpm for 10 minutes) rather than fresh Higgins media. The bottles were sealed with 20 mm teflon-lined rubber septa, evacuated and refilled with air (0% methane). One bottle was heat-killed and used as a control.
# 1.76 ml of Mt OB3b cell suspension was added to sealed 1.8 ml serum bottles (25 gauge needle used to equilibrate pressure). 45 μl of 4 mM TCE stock were added to start the assay. Bottles were incubated at 30° C. with agitation on a shaker bath. Bottles were sacrificed at 2.5, 5.0, 10.0, 15.0 and 20.0 mins by displacing 0.6 ml aqueous solution with pentane containing 1 ppm 1,2-dibromoethane as an internal standard. Analysis was performed on a HP 5790A GC using ECD.
# [2] = system: Methylosinus trichosporium OB3b; test: Two-phase headspace assay of TCE degradation by continuously cultured Mt OB3b; format: cell-based
# Protocol: Each culture of Mt OB3b was added in 2 ml quantities to 10 ml serum bottles. Bottles were sealed with 20 mm teflon-lined rubber septa. TCE was added to start the assay. Headspace accounted for 80% of total volume within bottles, but TCE concentration was added based on 2 ml aqueous phase. TCE resided principally in the headspace. All bottles were inverted in order to prevent possible TCE loss by trapping the compound in the headspace between the liquid phase and glass. Samples were incubated inverted at 30° C. with agitation (200 rpm on a platform shaker).
# Headspace incubations were analyzed by direct injection of headspace into a gas chromatograph. This method may be performed without sacrificing a sample. It is important to prepare sound calibration curves for quantitation. The best method for external standardization is to prepare samples as if running an assay and heat-killing at 80° C. for 10 mins prior to TCE addition. Samples were incubated for 30 mins under test conditions to allow adequate time for TCE to partition among the numerous phases (air, water, cell material, and the like). Headspace samples were injected into a gas chromatograph using either FID or ECD. Numerous TCE concentrations were used to obtain a sound standardization curve.
# Headspace assays of TCE degradation were conducted by adding bacterial cells from the continuous culture described in Example II or cells diluted with spent Higgins medium (2 mls) into assay vials (10 ml vials).
# Rates were calculated from peak heights of recorder tracings from a gas chromatograph equipped with an electron capture detector.
# [3] = target: T1, soluble methane monooxygenase (reductase, component B, hydroxylase) (Methylosinus trichosporium, UniProt P27353); test: Degradation of 14C-TCE by purified methane monooxygenase components with NADH, HPLC analysis; format: biochemical, Methylosinus trichosporium OB3b
# T1 construct: The cells were disintegrated by sonication; made in house; host or cells: native protein purified from cell paste of the methane-oxidizing bacterium (no recombinant host given)
# T1 sequence (P27353 1-526): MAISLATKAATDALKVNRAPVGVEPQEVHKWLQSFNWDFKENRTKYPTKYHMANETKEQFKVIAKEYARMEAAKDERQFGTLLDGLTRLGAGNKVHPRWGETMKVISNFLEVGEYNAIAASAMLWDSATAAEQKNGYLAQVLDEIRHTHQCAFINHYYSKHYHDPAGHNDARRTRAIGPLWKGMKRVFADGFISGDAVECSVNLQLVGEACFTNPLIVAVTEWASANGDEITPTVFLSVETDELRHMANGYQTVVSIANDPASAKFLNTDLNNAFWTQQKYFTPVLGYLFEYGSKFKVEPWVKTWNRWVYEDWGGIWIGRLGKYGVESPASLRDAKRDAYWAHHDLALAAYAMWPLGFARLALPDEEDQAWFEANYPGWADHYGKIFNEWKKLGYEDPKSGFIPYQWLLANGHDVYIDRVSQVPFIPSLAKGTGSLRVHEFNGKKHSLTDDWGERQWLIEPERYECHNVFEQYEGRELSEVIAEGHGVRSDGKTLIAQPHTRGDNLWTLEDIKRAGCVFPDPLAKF
# T1 sequence (P27354 1-394 partner): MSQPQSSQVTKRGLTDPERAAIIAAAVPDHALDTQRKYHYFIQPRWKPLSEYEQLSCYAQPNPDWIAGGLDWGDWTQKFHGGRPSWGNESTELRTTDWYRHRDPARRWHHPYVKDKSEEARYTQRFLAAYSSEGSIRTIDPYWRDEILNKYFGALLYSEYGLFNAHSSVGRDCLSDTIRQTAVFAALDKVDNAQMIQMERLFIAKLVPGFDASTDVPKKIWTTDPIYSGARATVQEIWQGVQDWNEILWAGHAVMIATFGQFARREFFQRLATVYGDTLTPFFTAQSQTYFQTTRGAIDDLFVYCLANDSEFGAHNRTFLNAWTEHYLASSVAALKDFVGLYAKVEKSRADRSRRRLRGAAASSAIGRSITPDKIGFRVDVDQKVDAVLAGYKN
# T1 sequence (P27355 1-169 partner): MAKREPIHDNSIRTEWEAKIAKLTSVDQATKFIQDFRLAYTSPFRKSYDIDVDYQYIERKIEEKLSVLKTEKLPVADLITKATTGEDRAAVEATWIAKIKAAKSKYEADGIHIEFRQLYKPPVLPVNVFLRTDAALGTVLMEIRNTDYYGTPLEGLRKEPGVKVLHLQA
# Protocol: The three components of methane monooxygenase, reductase, component B, and hydroxylase, were purified by the method of Fox and Lipscomb, supra, the disclosure of which is hereby incorporated by reference. All purification procedures were performed at 4° C. The cell paste (100 g) was suspended in 200 ml of 25 mM MOPS, pH 7.0, containing 200 μ M Fe(NH4 )2 (SO4)2.6H2 O and 2 mM cysteine (Buffer A). The cells were disintegrated by sonication. The sonicated suspension was centrifuged at 48000×g for 60 min. The supernatant was decanted, diluted with an additional 100 ml of buffer A, and adjusted to pH 7.0. The cell free extract was immediately loaded onto a fast flow DEAE Sepharose CL-6B column (40 mm×250 mm) equilibrated with buffer A. The column was then washed with 600 ml of buffer A. All MMO components were completely adsorbed. The MMO components were eluted with a 2000 ml gradient of 0.0 to 0.40M NaCl in buffer A. The hydroxylase eluted at 0.075M NaCl. The two additional fractions required for reconstituted hydroxylase activity, component B and the reductase, eluted at 0.18M NaCl and 0.27M NaCl, respectively.
# 105 nmol of uniformly labelled ^14 C-TCE was added to each vial by injection through the rubber septum above the reaction mixture until a final TCE concentration of 70 μM was reached. The reaction was allowed to proceed for 2 min at 25° C. and then quenched by the addition of sulfuric acid (Sigma Chemical Company, St. Louis, Miss.) at pH 2.0.
# Following centrifugation to remove precipitated protein, the reaction mixtures were analyzed by high pressure liquid chromatography (HPLC).
# [4] = system: Mt OB3b; test: TCE oxidation by Mt OB3b grown by conventional methods (shake flask); format: cell-based, Methylosinus trichosporium OB3b; settings: initial TCE concentrations of one ppm or higher
# [5] = system: methane-oxidizing bacteria; settings: soil exposed to 0.6% natural gas in air for 3 weeks, TCE average 150 μg/l in influent; cited from earlier work
# [6] = system: methane-utilizing mixed culture; settings: Fogel et al.; cited from earlier work
# [7] = system: methanotrophic bacteria; settings: optimal conditions, prior reports; cited from earlier work
# [8] = system: Methylococcus capsulatus Bath; settings: aerobe Methylococcus capsulatus Bath; cited from earlier work
smiles,measurement,setting,value
"ClC=C(Cl)Cl [TCE, 1,1,2-trichloroethene]",Rate of TCE-utilization (no headspace assay),"[1]; Test 1, culture turbidity A600 1.310",336 μmoles·hr^-1·g cells^-1
same,Rate of TCE-utilization (no headspace assay),"[1]; Test 2, culture turbidity A600 1.410",1070 μmoles·hr^-1·g cells^-1
same,Rate of TCE-utilization (no headspace assay),"[1]; Test 3, culture turbidity A600 1.460",2400 μmoles·hr^-1·g cells^-1
same,Rate when most rapid oxidation of TCE occurred,"[1]; Test 3, times of most rapid oxidation",approximately 3500 μmoles/h^-1.g cells^-1
same,Rates,"[1]; Test 3 Run 2, 1/10 dilution in Higgins media",3200 μmoles·h^-1·g cells^-1
same,Rates,"[1]; Test 3 Run 3, 1/10 dilution in spent Higgins media from chemostat",3960 μmoles·h^-1·g cells^-1
same,micromoles TCE removed · hr^-1 · g dry cells^-1,[1]; concentration of TCE 10 μM,829 micromoles TCE removed·hr^-1·g
same,micromoles TCE removed · hr^-1 · g dry cells^-1,[1]; concentration of TCE 25 μM,1104 micromoles TCE removed·hr^-1·g
same,micromoles TCE removed · hr^-1 · g dry cells^-1,[1]; concentration of TCE 50 μM,1194 micromoles TCE removed·hr^-1·g
same,Micromoles TCE removed,"[1]; concentration of TCE 40 μm, 5-10 min.",2.96 µmol/min
same,Micromoles TCE removed,"[1]; concentration of TCE 80 μm, 5-10 min.",5.69 µmol/min
same,Micromoles TCE removed,"[1]; concentration of TCE 80 μm, 10-15 min.",3.03 µmol/min
same,Micromoles TCE removed,"[1]; concentration of TCE 320 μm, 5-10 min.",15.54 µmol/min
same,Micromoles TCE removed,"[1]; concentration of TCE 320 μm, 10-15 min.",10.2 µmol/min
same,Micromoles TCE removed,"[1]; concentration of TCE 640 μm, 10-25 min.",10.48 µmol/min
same,Km,"[1]; concluded from Table VIII and other experiments, read-out: Ks for TCE oxidation",~5 µM
same,Rate of TCE oxidation,"[1]; methane added 5% saturation, cell density approx. 0.16 g/l, nominal initial TCE 80 μM",3350 μmoles·hr^-1·g cells^-1
same,Rate of TCE oxidation,"[1]; methane added 10% saturation, cell density approx. 0.16 g/l, nominal initial TCE 80 μM",3000 μmoles·hr^-1·g cells^-1
same,Rate of TCE oxidation,"[1]; methane added 20% saturation, cell density approx. 0.16 g/l, nominal initial TCE 80 μM",875 μmoles·hr^-1·g cells^-1
same,Rate of TCE oxidation,"[1]; methane added 50% saturation, cell density approx. 0.16 g/l, nominal initial TCE 80 μM",110 μmoles·hr^-1·g cells^-1
same,Rate of TCE oxidation,"[1]; methane added: none, cell density approx. 0.16 g/l, nominal initial TCE 80 μM",660 μmoles·hr^-1·g cells^-1
same,Rate of TCE oxidation,"[1]; some cell batches, without any methane present",approximately 4000 micro-moles.hr^-1.g cells^-1
same,Rate at which cells are believed able to oxidize TCE,"[1]; under optimal conditions, belief, extrapolated","10,000 μmoles.h^-1.g cells^-1"
same,"Rate, micromoles TCE oxidized · g cells^-1 · hr^-1","[2]; cell density .070 g·l^-1, initial TCE 22 micromolar",808 micromoles TCE oxidized·g cell
same,"Rate, micromoles TCE oxidized · g cells^-1 · hr^-1","[2]; cell density .173 g·l^-1, initial TCE 23 micromolar",461 micromoles TCE oxidized·g cell
same,"Rate, micromoles TCE oxidized · g cells^-1 · hr^-1","[2]; cell density .347 g·l^-1, initial TCE 22 micromolar",465 micromoles TCE oxidized·g cell
same,"Rate, micromoles TCE oxidized · g cells^-1 · hr^-1","[2]; cell density .521 g·l^-1, initial TCE 22 micromolar",308 micromoles TCE oxidized·g cell
same,"Rate, micromoles TCE oxidized · g cells^-1 · hr^-1","[2]; cell density .695 g·l^-1, initial TCE 22 micromolar",281 micromoles TCE oxidized·g cell
same,Rate of TCE degradation,"[2]; low cell densities, initial TCE 80 μM, culture cell mass 0.825 g/l (FIG. 1)",1200 micromoles TCE removed.hr^-1.g cells^-1
same,Products of TCE oxidation,"[3]; 70 μM 14C-TCE, 2 min at 25° C., HPLC","formic acid, glyoxylic acid, dichloroacetic acid, and chloral"
same,TCE converted to HPLC-detectable products,"[3]; 70 μM 14C-TCE, 2 min at 25° C., reductase 110 μg, component B 13 μg, hydroxylase 250 μg, NADH 0.1 mM",53%
same,Products of TCE oxidation in control incubations,[3]; each one of the methane monooxygenase components or NADH omitted,no products of TCE oxidation were detectable
same,Removal at which oxidation of TCE ceased,[4],about 50%
same,Applied TCE passing through the soil,[5],less than 5%
same,Rate of TCE degradation,[6],approximately 2.5 μmoles per hour per gram of cells
same,Rates of TCE degradation reported,[7],exceed 100 μmoles per hour per gram of cells
ClC(Cl)Cl [chloroform],Oxidation rate,[8],35 nano-moles per gram of cells per minute
